In patent US7351706B2, “Indol-3-yl-carbonyl-spiro-piperidine derivatives” (Hoffmann-La Roche Inc., priority 2006, dated 2008):

target: T1, human V1a receptor (Homo sapiens, UniProt P37288); assay: human V1a receptor binding (3H-Vasopressin SPA, HEK293 membranes); details: 3H-Vasopressin displacement, membranes of HEK293 cells transiently transfected with human V1a; Ki by Cheng-Prussoff
T1 construct: expressed in transfected cells; host or cells: HEK293 cells, transiently transfected; membranes prepared
Procedure: The human V1a receptor was cloned by RT-PCR from total human liver RNA. The coding sequence was subcloned in an expression vector after sequencing to confirm the identity of the amplified sequence. […] Cell membranes were prepared from HEK293 cells transiently transfected with the expression vector and grown in 20 liter fermenters with the following protocol.
50 g of cells are resuspended in 30 ml freshly prepared ice cold Lysis buffer (50 mM HEPES, 1 mM EDTA, 10 mM MgCl2 adjusted to pH=7.4+complete cocktail of protease inhibitor (Roche Diagnostics)). Homogenized with Polytron for 1 min and sonicated on ice for 2×2 minutes at 80% intensity (Vibracell sonicator). The preparation is centrifuged 20 min at 500 g at 4° C., the pellet is discarded and the supernatant centrifuged 1 hour at 43'000 g at 4° C. (19'000 rpm). The pellet is resuspended in 12.5 ml Lysis buffer+12.5 ml Sucrose 20% and homogenized using a Polytron for 1-2 min. The protein concentration is determined by the Bradford method and aliquots are stored at −80° C. until use. For binding studies 60 mg Yttrium silicate SPA beads (Amersham) are mixed with an aliquot of membrane in binding buffer (50 mM Tris, 120 mM NaCl, 5 mM KCl, 2 mM CaCl2, 10 mM MgCl2) for 15 minutes with mixing. 50 ul of bead/membrane mixture is then added to each well of a 96 well plate, followed by 50 ul of 4 nM 3H-Vasopressin (American Radiolabeled Chemicals). For total binding measurement 100 ul of binding buffer are added to the respective wells, for non-specific binding 100 ul of […] cold vasopressin and for compound testing 100 ul of a serial dilution of each compound in 2% DMSO. The plate is incubated 1 h at room temperature, centrifuged 1 min at 1000 g and counted on a Packard Top-Count. Non-specific binding counts are subtracted from each well and data is normalized to the maximum specific binding set at 100%. To calculate an IC 50 the curve is fitted using a non-linear regression model (XLfit) and the Ki is calculated using the Cheng-Prussoff equation.

T1 sequence (P37288 whole entry): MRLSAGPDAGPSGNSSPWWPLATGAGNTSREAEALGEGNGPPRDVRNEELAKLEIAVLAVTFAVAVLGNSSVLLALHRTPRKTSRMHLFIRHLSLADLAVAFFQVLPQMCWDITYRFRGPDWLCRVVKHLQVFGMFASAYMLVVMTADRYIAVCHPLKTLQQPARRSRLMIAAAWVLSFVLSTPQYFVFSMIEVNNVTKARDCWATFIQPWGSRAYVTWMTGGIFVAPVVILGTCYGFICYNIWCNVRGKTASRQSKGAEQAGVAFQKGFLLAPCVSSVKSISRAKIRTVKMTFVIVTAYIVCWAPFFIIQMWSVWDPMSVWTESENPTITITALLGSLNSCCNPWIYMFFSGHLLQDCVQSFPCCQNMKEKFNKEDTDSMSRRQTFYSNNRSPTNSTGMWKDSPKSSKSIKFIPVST

Compound | Ki [nM]
O=C1Nc2ccccc2C2(CCN(C(=O)c3c[nH]c4cc(Cl)ccc34)CC2)O1 [Example 1, 1′-[(6-Chloro-1H-indol-3-yl)carbonyl]spiro[3,1-benzoxazine-4,4′-piperidin]-2(1H)-one] | 32
O=C1Nc2ccccc2C2(CCN(C(=O)c3cn(C(=O)c4cccc(F)c4)c4cc(Cl)ccc34)CC2)O1 [Example 6, 1′-{[6-Chloro-1-(3-fluorobenzoyl)-1H-indol-3-yl]carbonyl}spiro[3,1-benzoxazine-4,4′-piperidin]-2(1H)-one] | 118
CNC(=O)Cn1cc(C(=O)N2CCC3(CC2)CNC(=O)c2ccccc23)c2ccc(Cl)cc21 [Example 28, 2-{6-chloro-3-[(1-oxo-2,3-dihydro-1H, 1′H-spiro[isoquinoline-4,4′-piperidin]-1′-yl)carbonyl]-1H-indol-1-yl}-N-methylacetamide] | 166
CN(C)CCN1C(=O)OC2(CCN(C(=O)c3c[nH]c4cc(Cl)ccc34)CC2)c2cc(Cl)ccc21 [Example 3, 6-Chloro-1′-[(6-chloro-1H-indol-3-yl)carbonyl]-1-[2-(dimethylamino)ethyl]spiro[3,1-benzoxazine-4,4′-piperidin]-2(1H)-one] | 402
O=C1Nc2ccccc2C2(CCN(C(=O)c3cn(C(=O)c4cc(F)cc(F)c4)c4cc(Cl)ccc34)CC2)O1 [Example 21, 1′-{[6-Chloro-1-(3,5-difluorobenzoyl)-1H-indol-3-yl]carbonyl}spiro[3,1-benzoxazine-4,4′-piperidin]-2(1H)-one] | 88
O=C1Nc2ccccc2C2(CCN(C(=O)c3cn(C(=O)c4cccc(F)c4F)c4cc(Cl)ccc34)CC2)O1 [Example 8, 1′-{[6-Chloro-1-(2,3-difluorobenzoyl)-1H-indol-3-yl]carbonyl}spiro[3,1-benzoxazine-4,4′-piperidin]-2(1H)-one] | 136
O=C1Nc2ccccc2C2(CCN(C(=O)c3cn(Cc4cc(F)cc(F)c4)c4cc(Cl)ccc34)CC2)O1 [Example 10, 1′-{[6-Chloro-1-(3,5-difluorobenzyl)-1H-indol-3-yl]carbonyl}spiro[3,1-benzoxazine-4,4′-piperidin]-2(1H)-one] | 3
O=C1Nc2ccccc2C2(CCN(C(=O)c3cn(-c4cc(F)cc(F)c4)c4cc(Cl)ccc34)CC2)O1 [Example 5, 1′-{[6-Chloro-1-(3,5-difluorophenyl)-1H-indol-3-yl]carbonyl}spiro[3,1-benzoxazine-4,4′-piperidin]-2(1H)-one] | 130
O=C1Nc2ccccc2C2(CCN(C(=O)c3cn(C(=O)N4CCCCC4)c4cc(Cl)ccc34)CC2)O1 [Example 19, 1′-{[6-Chloro-1-(piperidin-1-ylcarbonyl)-1H-indol-3-yl]carbonyl}spiro[3,1-benzoxazine-4,4′-piperidin]-2(1H)-one] | 46
O=C1Nc2ccc(Cl)cc2C2(CCN(C(=O)c3c[nH]c4cc(Cl)ccc34)CC2)O1 [Example 4, 6-Chloro-1′-[(6-chloro-1H-indol-3-yl)carbonyl]spiro[3,1-benzoxazine-4,4′-piperidin]-2(1H)-one] | 310
O=C1Nc2ccccc2C2(CCN(C(=O)c3cn(C(=O)c4ccccc4F)c4cc(Cl)ccc34)CC2)O1 [Example 7, 1′-{[6-Chloro-1-(2-fluorobenzoyl)-1H-indol-3-yl]carbonyl}spiro[3,1-benzoxazine-4,4′-piperidin]-2(1H)-one] | 117
O=C1CC2(CCN(C(=O)c3c[nH]c4ccccc34)CC2)c2cc(Br)ccc2N1 [Example 2, 6′-Bromo-1-(1H-indol-3-ylcarbonyl)-1′H-spiro[piperidine-4,4′-quinolin]-2′(3′H)-one] | 2050
Cc1oc(-c2ccccc2)nc1C(=O)Cn1cc(C(=O)N2CCC3(CC2)OC(=O)Nc2ccccc23)c2ccc(Cl)cc21 [Example 27, 1′-({6-Chloro-1-[2-(5-methyl-2-phenyl-1,3-oxazol-4-yl)-2-oxoethyl]-1H-indol-3-yl}carbonyl)spiro[3,1-benzoxazine-4,4′-piperidin]-2(1H)-one] | 29
CC(C#N)n1cc(C(=O)N2CCC3(CC2)OC(=O)Nc2ccccc23)c2ccc(Cl)cc21 (centres unmarked) [Example 25, 2-{6-Chloro-3-[(2-oxo-1,2-dihydro-1′H-spiro[3,1-benzoxazine-4,4′-piperidin]-1′-yl)carbonyl]-1H-indol-1-yl}propanenitrile] | 28
O=C1Nc2ccccc2C2(CCN(C(=O)c3cn(CC(=O)c4cc(F)cc(F)c4)c4cc(Cl)ccc34)CC2)O1 [Example 22, 1′-({6-Chloro-1-[2-(3,5-difluorophenyl)-2-oxoethyl]-1H-indol-3-yl}carbonyl)spiro[3,1-benzoxazine-4,4′-piperidin]-2(1H)-one] | 200
O=C1Nc2ccccc2C2(CCN(C(=O)c3cn(CC(=O)N4CCOCC4)c4cc(Cl)ccc34)CC2)O1 [Example 16, 1′-{[6-Chloro-1-(2-morpholin-4-yl-2-oxoethyl)-1H-indol-3-yl]carbonyl}spiro[3,1-benzoxazine-4,4′-piperidin]-2(1H)-one] | 20

Continued, values first:

Ki [nM] | Compound
8 | O=C1Nc2ccccc2C2(CCN(C(=O)c3cn(CC(=O)c4ccccn4)c4cc(Cl)ccc34)CC2)O1 [Example 26, 1′-{[6-Chloro-1-(2-oxo-2-pyridin-2-ylethyl)-1H-indol-3-yl]carbonyl}spiro[3,1-benzoxazine-4,4′-piperidin]-2(1H)-one]
7 | O=C1Nc2ccccc2C2(CCN(C(=O)c3cn(CC(=O)c4cccc(F)c4)c4cc(Cl)ccc34)CC2)O1 [Example 12, 1′-({6-Chloro-1-[2-(3-fluorophenyl)-2-oxoethyl]-1H-indol-3-yl}carbonyl)spiro[3,1-benzoxazine-4,4′-piperidin]-2(1H)-one]
10 | CC(C)(C)OC(=O)Cn1cc(C(=O)N2CCC3(CC2)OC(=O)Nc2ccccc23)c2ccc(Cl)cc21 [Example 20, tert-Butyl {6-chloro-3-[(2-oxo-1,2-dihydro-1′H-spiro[3,1-benzoxazine-4,4′-piperidin]-1′-yl)carbonyl]-1H-indol-1-yl}acetate]
10 | N#CCCn1cc(C(=O)N2CCC3(CC2)OC(=O)Nc2ccccc23)c2ccc(Cl)cc21 [Example 24, 3-{6-Chloro-3-[(2-oxo-1,2-dihydro-1′H-spiro[3,1-benzoxazine-4,4′-piperidin]-1′-yl)carbonyl]-1H-indol-1-yl}propanenitrile]
8 | O=C1Nc2ccccc2C2(CCN(C(=O)c3cn(CC(=O)c4ccc(F)c(F)c4)c4cc(Cl)ccc34)CC2)O1 [Example 13, 1′-({6-Chloro-1-[2-(3,4-difluorophenyl)-2-oxoethyl]-1H-indol-3-yl}carbonyl)spiro[3,1-benzoxazine-4,4′-piperidin]-2(1H)-one]
6 | CCN(CC)C(=O)Cn1cc(C(=O)N2CCC3(CC2)OC(=O)Nc2ccccc23)c2ccc(Cl)cc21 [Example 18, 2-{6-Chloro-3-[(2-oxo-1,2-dihydro-1H-spiro[3,1-benzoxazine-4,4′-piperidin]-1′-yl)carbonyl]-1H-indol-1-yl}-N,N-diethylacetamide]
5 | O=C1Nc2ccccc2C2(CCN(C(=O)c3cn(Cc4cccc(F)c4)c4cc(Cl)ccc34)CC2)O1 [Example 11, 1′-{[6-Chloro-1-(3-fluorobenzyl)-1H-indol-3-yl]carbonyl}spiro[3,1-benzoxazine-4,4′-piperidin]-2(1H)-one]
7 | O=C1Nc2ccccc2C2(CCN(C(=O)c3cn(CC(=O)N4CCCCC4)c4cc(Cl)ccc34)CC2)O1 [Example 15, 1′-{[6-Chloro-1-(2-oxo-2-piperidin-1-ylethyl)-1H-indol-3-yl]carbonyl}spiro[3,1-benzoxazine-4,4′-piperidin]-2(1H)-one]
5.7 | CN(C)C(=O)Cn1cc(C(=O)N2CCC3(CC2)OC(=O)Nc2ccccc23)c2ccc(Cl)cc21 [Example 17, 2-{6-Chloro-3-[(2-oxo-1,2-dihydro-1′H-spiro[3,1-benzoxazine-4,4′-piperidin]-1′-yl)carbonyl]-1H-indol-1-yl}-N,N-dimethylacetamide]
2 | O=C1Nc2ccccc2C2(CCN(C(=O)c3cn(CC(=O)c4ccccc4F)c4cc(Cl)ccc34)CC2)O1 [Example 23, 1′-({6-Chloro-1-[2-(2-fluorophenyl)-2-oxoethyl]-1H-indol-3-yl}carbonyl)spiro[3,1-benzoxazine-4,4′-piperidin]-2(1H)-one]
